Consider two compounds from patent US20020120147A1, “Micronized torsemide” (priority 2000, published 2002).

The structures appear in SMILES notation.

For series [1] the following is noted: background statement; cited from earlier work.
Series [2] can be described thus: particle size after micronization in a micronizer. The series is classed as physicochemical. The conditions noted are these: pure dry torsemide micronized in a micronizer (Example 1). An excerpt:
Pure dry torsemide was micronized in a micronizer. The result was micronized torsemide of a particle size of less than 5 micrometer.

For `Cc1cccc(Nc2ccncc2S(=O)(=O)NC(=O)NC(C)C)c1` [Torsemide, 1-Isopropyl-3-[(4-m-toluidino-3-pyridyl)sulfonyl] urea], the solubility in water entry in series [1] is given as “essentially insoluble”.

As to `Cc1cccc(Nc2ccncc2S(=O)(=O)NC(=O)NC(C)C)c1` [micronized torsemide, 1-Isopropyl-3-[(4-m-toluidino-3-pyridyl)sulfonyl] urea], the particle size result in series [2] is given as “less than 5 micrometer”.
